The text below walks through data of patent publication US11560400B2, “Salts of diphosphate phosphoramidate of nucleosides as anticancer compounds” (NuCana plc, priority 2017, dated 2023).

Test [1] concerns HepG2. Kind of test: CellTiterGlo cell viability assay, HepG2. Type of test: cell-based. The note with it: Homo sapiens, HepG2, 72 h; for EC50: read-out: Ab EC50; for inhibition at 198 µM: percentage inhibition at the highest concentration tested, read-out: Top Inhibit. The method, then: (§1) A subset of compounds of the invention were assayed for their cytotoxic activity in an array of different solid tumours and haematological malignancies using the following assay.
(§2) In vitro viability assay were performed to assess the effects of compounds on cell viability in selected cell lines over 72 h using the CellTiterGlo (CTG, Promega-G7573) assay. The tests were performed in duplicates with treatment of compounds at 9 points, 3.16 folds titration in 96 well plates over ˜72 h. The compound starting concentrations were 198 μM. Cell viability assay using CellTiterGlo in 96-well plate were performed. Compound treatment 72 h, standard growth conditions, duplicates. Compounds were dissolved to 40 mM with thawed […]. Compounds were serially diluted at 3.16 fold in thawed DMSO, and warmed to 37° C. before being dissolved in media (2 μL+200 μL). After compounds were dissolved in media, media containing compounds were warmed to 37° C. in incubator and then compounds in media were added to cell plates (50 μL+50 μL) in duplicates. The compounds' final concentrations were from 198 μM to 19.8 nM. All compound solubilities were checked and recorded again, then the plates were transferred to CO2 tissue culture incubator immediately and incubated for 3 days. DMSO final concentration is 0.5%. The parent nucleoside in each case was tested as a comparator, as was an exemplary ProTide. The drugs of the ProTide class that were tested were as follows:
(§3) The following cell lines were tested and are referred to in the Table 1 below:
(§4) In Tables 2, 3 and 4, ‘Ab EC50’ refers to the absolute EC50 and ‘Top inhibit’ refers to the percentage inhibition achieved at the highest concentration tested.
(In general: In ATP-based viability assays light output follows the ATP content of the culture.)

For test [2], the system named is RL. Description: CellTiterGlo cell viability assay, RL. As to conditions: Homo sapiens, 72 h, percentage inhibition at the highest concentration tested, read-out: Top Inh. Type of test: cell-based. The method, then:
as §1, §2, §3, §4

In test [3] the test system is RPMI-8226. Kind of test: CellTiterGlo cell viability assay, RPMI-8226. As to conditions: Homo sapiens, RPMI-8226, 72 h; for EC50: read-out: Ab EC50; for inhibition at 198 µM: percentage inhibition at the highest concentration tested, read-out: Top Inh. Type of test: cell-based, Human. As for the experimental part: as §1, §2, §3, §4
Test [4] concerns CCRF-CEM. Description: CellTiterGlo cell viability assay, CCRF-CEM. The test is classed as cell-based. As to conditions: Homo sapiens, 72 h; for EC50: read-out: Ab EC50; for inhibition at 198 µM: percentage inhibition at the highest concentration tested, read-out: Top Inh. The method, then:
as §1, §2, §3, §4

The subject of test [5] is HL-60. Kind of test: CellTiterGlo cell viability assay, HL-60. Type of test: cell-based. The note with it: Homo sapiens, HL-60, 72 h; for EC50: read-out: Ab EC50; for inhibition at 198 µM: percentage inhibition at the highest concentration tested, read-out: Top Inh. The method, then:
as §1, §2, §3, §4

Test [6] concerns K562. Kind of test: CellTiterGlo cell viability assay, K562. The test is classed as cell-based. As to conditions: Homo sapiens; for inhibition at 198 µM: percentage inhibition at the highest concentration tested, read-out: Top Inh; for EC50: read-out: Ab EC50. The method, then:
as §1, §2, §3, §4

Test [7] has as its system OVCAR 3. Description: CellTiterGlo cell viability assay, OVCAR 3. Type of test: cell-based. As to conditions: Homo sapiens; for inhibition at 198 µM: OVCAR-3, 72 h, percentage inhibition at the highest concentration tested, read-out: Top Inhibit; for EC50: OVCAR 3, 72 h, read-out: Ab EC50. As for the experimental part:
as §1, §2, §3, §4

In test [8] the test system is MOLT-4. Kind of test: CellTiterGlo cell viability assay, MOLT-4. Type of test: cell-based. The note with it: Homo sapiens, MOLT-4, 72 h; for inhibition at 198 µM: percentage inhibition at the highest concentration tested, read-out: Top Inh; for EC50: read-out: Ab EC50. As for the experimental part: as §1, §2, §3, §4
The test system of test [9] is MCF-7. Kind of test: CellTiterGlo cell viability assay, MCF-7. As to conditions: Homo sapiens, MCF7, 72 h, MCF-7, 72 h, percentage inhibition at the highest concentration tested; read-out: Top Inhibit. The test is classed as cell-based. The method, then: as §1, §2, §3, §4
Test [10] has as its system KG-1. Kind of test: CellTiterGlo cell viability assay, KG-1. The test is classed as cell-based. As to conditions: Homo sapiens, KG-1, 72 h; for EC50: read-out: Ab EC50; for inhibition at 198 µM: percentage inhibition at the highest concentration tested, read-out: Top Inhibit. The method, then:
as §1, §2, §3, §4

Test [11] has as its system HT29. Kind of test: CellTiterGlo cell viability assay, HT29. Type of test: cell-based. As to conditions: Homo sapiens, HT-29, 72 h, HT29, 72 h; for EC50: read-out: Ab EC50; for inhibition at 198 µM: percentage inhibition at the highest concentration tested, read-out: Top Inhibit. As for the experimental part: as §1, §2, §3, §4
The mark [12] stands for this setting: K562, K 562, 72 h, Table 4 classes.

Structures can show the parent of a compound that is named as a salt. Where two headings read alike, the source gives them in different places.

On to `C[C@@H](NP(=O)(Oc1ccccc1)OP(=O)(O)OC[C@H]1O[C@@H](n2cnc3c(N)nc(Cl)nc32)[C@H](F)C1O)C(=O)OCC(C)(C)C` (stereo partly drawn) [Example 14, 2-Chloro-9-(2′-Deoxy-2′-fluoro-β-D-arabinofuranosyl)adenine-5′-O-[phenyl(neopentoxy-D-alaninyl)] Diphosphate Triethylammonium Salt], for which the EC50 is 200 to 1000 nM in test [1] (Table 4 classes); over 10000 nM in test [3] (Table 4 classes); under 200 nM in test [4] (Table 4 classes); under 200 nM in [5] (Table 4 classes); over 10000 nM in test [6] (setting [12]); over 10000 nM in test [7] (Table 4 classes). In addition, the values for the EC50 in [8] (Table 4 classes), in test [10] (Table 4 classes) and in [11] (Table 4 classes) were under 200 nM, under 200 nM and 200 to 1000 nM, respectively. In addition, the inhibition at 198 µM is 52% in test [1]; 49% in test [2]; 78% in test [3]; 99% in [4]; 96% in [5]; 36% in test [6] (K562, 72 h). Also, the inhibition at 198 µM in [7] was found to be 43%; in test [8] it was 95%; in [9] it was 48%; in [10] it was 93%; in test [11] it was 71%.
With `CC(C)OC(=O)[C@H](C)NP(=O)(Oc1ccccc1)OP(=O)(O)OC[C@H]1O[C@@H](n2cnc3c(N)nc(Cl)nc32)[C@H](F)C1O` (stereo partly drawn) [Example 15, 2-Chloro-9-(2′-Deoxy-2′-fluoro-β-D-arabinofuranosyl)adenine-5′-O-[1-phenyl(isopropoxy-L-alaninyl)] Diphosphate Triethylammonium Salt], the EC50 is 370 nM in [1] (absolute EC50, numeric values); 30300 nM in test [3] (absolute EC50, numeric values); under 20 nM in [4] (absolute EC50, numeric values); 60 nM in test [5] (absolute EC50, numeric values); over 198000 nM in test [6] (K562, 72 h, absolute EC50, numeric values); over 198000 nM in [7] (absolute EC50, numeric values). In addition, the concentration for a half-maximal effect (EC50) was found to be 30 nM in [8] (absolute EC50, numeric values); 90 nM in test [10] (absolute EC50, numeric values); 330 nM in [11] (absolute EC50, numeric values). Also, the inhibition at 198 µM in test [1] turned out to be 51%; in [2], 49%; in test [3], 80%; in [4], 99%; in test [5], 96%; in test [6] (K562, 72 h), 36%. Further, the inhibition at 198 µM was found to be 41% in [7]; 90% in test [8]; 47% in test [9]; 92% in test [10]; 69% in test [11].
Take `COC(=O)[C@H](C)NP(=O)(Oc1ccccc1)OP(=O)(O)OC[C@H]1O[C@@H](n2cnc3c(N)nc(Cl)nc32)[C@H](F)C1O` (stereo partly drawn) [Example 16, 2-Chloro-9-(2′-Deoxy-2′-fluoro-β-D-arabinofuranosyl)adenine-5′-O-[1-phenyl(methoxy-L-alaninyl)] Diphosphate Triethylammonium Salt]: the half-maximal effective concentration (EC50) in test [1] (Table 4 classes) was 200 to 1000 nM; in test [3] (Table 4 classes), over 10000 nM; in [4] (Table 4 classes), under 200 nM; in [5] (Table 4 classes) it was under 200 nM; in test [6] (setting [12]), over 10000 nM; in test [7] (Table 4 classes), over 10000 nM. For the same compound, the figures for the EC50 in test [8] (Table 4 classes), in test [10] (Table 4 classes) and in test [11] (Table 4 classes) were under 200 nM, under 200 nM and 200 to 1000 nM, respectively. Also, the inhibition at 198 µM in [1] was 53%; in test [2], 49%; in test [3], 84%; in test [4], 99%; in test [5] it was 96%; in [6] (K562, 72 h), 33%. Further, the inhibition at 198 µM came to 44% in test [7]; 97% in test [8]; 47% in test [9]; 93% in test [10]; 71% in test [11].
In the case of `C[C@H](NP(=O)(Oc1cccc2ccccc12)OP(=O)(O)OC[C@H]1O[C@@H](n2cnc3c(N)nc(Cl)nc32)[C@H](F)C1O)C(=O)OCc1ccccc1` (stereo partly drawn) [Example 17, 2-Chloro-9-(2′-Deoxy-2′-fluoro-β-D-arabinofuranosyl)adenine-5′-O-[1-1-naphthyl(benzoxy-L-alaninyl)] Diphosphate Triethylammonium Salt], the concentration giving a half-maximal response (EC50) in test [1] (Table 4 classes) is 200 to 1000 nM; in test [3] (Table 4 classes), over 10000 nM; in test [4] (Table 4 classes) it was under 200 nM; in test [5] (Table 4 classes), under 200 nM; in [6] (setting [12]) it was over 10000 nM; in [7] (Table 4 classes) it was over 10000 nM. Besides, the results for the concentration giving a half-maximal response (EC50) in [8] (Table 4 classes), in [10] (Table 4 classes) and in test [11] (Table 4 classes) were under 200 nM, under 200 nM and 200 to 1000 nM, respectively. Besides, the inhibition at 198 µM stood at 52% in [1]; 48% in test [2]; 82% in test [3]; 99% in test [4]; 96% in [5]; 37% in test [6] (K562, 72 h). The inhibition at 198 µM came to 47% in test [7]; 88% in test [8]; 46% in test [9]; 92% in test [10]; 69% in test [11].
For the compound `CCCCCCOC(=O)[C@H](C)NP(=O)(Oc1ccccc1)OP(=O)(O)OC[C@H]1O[C@@H](n2cnc3c(N)nc(Cl)nc32)[C@H](F)C1O` (stereo partly drawn) [Example 18, 2-Chloro-9-(2′-Deoxy-2′-fluoro-β-D-arabinofuranosyl)adenine-5′-O-[1-phenyl(hexoxy-L-alaninyl)] Diphosphate Triethylammonium Salt], the 50% effective concentration (EC50) was 200 to 1000 nM in test [1] (Table 4 classes); over 10000 nM in test [3] (Table 4 classes); under 200 nM in test [4] (Table 4 classes); under 200 nM in test [5] (Table 4 classes); over 10000 nM in [6] (setting [12]); over 10000 nM in test [7] (Table 4 classes). Moreover, the EC50 in [8] (Table 4 classes) was under 200 nM; in [10] (Table 4 classes), under 200 nM; in test [11] (Table 4 classes), 200 to 1000 nM. For the same compound, the inhibition at 198 µM in test [1] came to 53%; in test [2], 48%; in test [3], 84%; in test [4] it was 99%; in test [5], 96%; in test [6] (K562, 72 h), 40%. Also, the inhibition at 198 µM in test [7] was found to be 47%; in test [8], 88%; in test [9], 44%; in test [10] it was 91%; in [11] it was 66%.

Broadly, the EC50 is the midpoint of the concentration-response curve.
